Laboratory results from patent US20030144249A1, “Use of organophosphorous compounds for producing a medicament for treating infections” (priority 2000, published 2003).

How the values were obtained:
Amaranthus retroflexus [1] = test: Herbicidal activity, soil, post-emergence; type: in vivo; settings: Soil, post-emergence
Procedure: (§1) Herbicidal activity is determined using standard methods.
(§2) Substances 1 to 8 listed on page 5 are again investigated.

Setaria viridis [2] = test: Herbicidal activity, soil, post-emergence; type: in vivo; settings: Soil, post-emergence
Procedure: as §1, §2

Galium aperine [3] = test: Herbicidal activity, soil, post-emergence; type: in vivo; settings: Soil, post-emergence
Procedure: as §1, §2

Cyperus esculentus [4] = test: Herbicidal activity, soil, post-emergence; type: in vivo; settings: Soil, post-emergence
Procedure: as §1, §2

Avena fatua [5] = test: Herbicidal activity, soil, post-emergence; type: in vivo; settings: Soil, post-emergence
Procedure: as §1, §2

Beta vulgaris [6] = test: Herbicidal activity, soil, post-emergence; type: in vivo; settings: Soil, post-emergence
Procedure: as §1, §2

Zea mays [7] = test: Herbicidal activity, soil, post-emergence; type: in vivo; settings: Soil, post-emergence
Procedure: as §1, §2

Xanthium strumarium [8] = test: Herbicidal activity, soil, post-emergence; type: in vivo; settings: Soil, post-emergence
Procedure: as §1, §2

Alopecurus myosuroides [9] = test: Herbicidal activity, soil, post-emergence; type: in vivo; settings: Soil, post-emergence
Procedure: as §1, §2

Sinapis arvensis [10] = test: Herbicidal activity, soil, post-emergence; type: in vivo; settings: Mutarda arvensis, Soil, post-emergence
Procedure: as §1, §2

Abutilon theophrasti [11] = test: Herbicidal activity, soil, post-emergence; type: in vivo; settings: Soil, post-emergence
Procedure: as §1, §2

[12] = target: T1, DOXP reductoisomerase from Helicobacter pylori (Helicobacter pylori, UniProt P56139); test: DOXP reductoisomerase inhibition (NADPH oxidation at 365 nm); type: biochemical; settings: recombinant enzyme; 0.3 mM NADPH, 1 mM DOXP, pH 7.5; read-out: IC50 (nM) of DOXP reductoisomerase from Helicobacter pylori
T1 construct: made in house; host or cells: Helicobacter pylori (so in the source)
T1 sequence (P56139 1-368): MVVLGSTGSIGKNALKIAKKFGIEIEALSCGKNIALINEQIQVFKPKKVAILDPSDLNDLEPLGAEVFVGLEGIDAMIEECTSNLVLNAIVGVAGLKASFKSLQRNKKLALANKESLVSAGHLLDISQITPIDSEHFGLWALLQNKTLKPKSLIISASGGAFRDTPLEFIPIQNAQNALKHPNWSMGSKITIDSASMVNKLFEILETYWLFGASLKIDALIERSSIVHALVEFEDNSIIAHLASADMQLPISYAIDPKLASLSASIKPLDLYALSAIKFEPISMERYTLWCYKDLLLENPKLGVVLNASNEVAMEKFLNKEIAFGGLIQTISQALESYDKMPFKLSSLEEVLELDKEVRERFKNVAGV
Procedure: The DOXP reductoisomerase of Helicobacter pylori was expressed as a recombinant protein in Helicobacter pylori. The activity of DOXP reductoisomerase was determined in a batch containing 100 mM tris-HCl (pH=7.5), 1 mM MnCl2, 0.3 mM NADPH and 1 mM DOXP.
The oxidation of NADPH was here measured at 365 nm in a spectrophotometer. The inhibition studies were performed by measuring the activity of DOXP reductoisomerase in the presence of compounds 1 to 8 (see page 5) at various concentrations between 0. 1 and 100 μmol l^−1.

Rice = test: Herbicidal activity, water, pre-emergence; type: in vivo; settings: Oryza sativa, Water
Procedure: as §1, §2

Echinochloa = test: Herbicidal activity, water, pre-emergence; type: in vivo; settings: Water
Procedure: as §1, §2

Solanum = test: Herbicidal activity, water, pre-emergence; type: in vivo; settings: Water
Procedure: as §1, §2

Lepidium = test: Herbicidal activity, water, pre-emergence; type: in vivo; settings: Water
Procedure: as §1, §2

Amaranthus retroflexus [13] = test: Herbicidal activity, soil, pre-emergence; type: in vivo; settings: Soil, pre-emergence
Procedure: as §1, §2

Setaria viridis [14] = test: Herbicidal activity, soil, pre-emergence; type: in vivo; settings: Soil, pre-emergence
Procedure: as §1, §2

Galium aperine [15] = test: Herbicidal activity, soil, pre-emergence; type: in vivo; settings: Soil, pre-emergence
Procedure: as §1, §2

Cyperus esculentus [16] = test: Herbicidal activity, soil, pre-emergence; type: in vivo; settings: Soil, pre-emergence
Procedure: as §1, §2

Avena fatua [17] = test: Herbicidal activity, soil, pre-emergence; type: in vivo; settings: Soil, pre-emergence
Procedure: as §1, §2

Beta vulgaris [18] = test: Herbicidal activity, soil, pre-emergence; type: in vivo; settings: Soil, pre-emergence
Procedure: as §1, §2

Zea mays [19] = test: Herbicidal activity, soil, pre-emergence; type: in vivo; settings: Soil, pre-emergence
Procedure: as §1, §2

Xanthium strumarium [20] = test: Herbicidal activity, soil, pre-emergence; type: in vivo; settings: Soil, pre-emergence
Procedure: as §1, §2

Alopecurus myosuroides [21] = test: Herbicidal activity, soil, pre-emergence; type: in vivo; settings: Soil, pre-emergence
Procedure: as §1, §2

Sinapis arvensis [22] = test: Herbicidal activity, soil, pre-emergence; type: in vivo; settings: Mutarda arvensis, Soil, pre-emergence
Procedure: as §1, §2

Abutilon theophrasti [23] = test: Herbicidal activity, soil, pre-emergence; type: in vivo; settings: Soil, pre-emergence
Procedure: as §1, §2

Plasmodium falciparum = test: Antimalarial activity, in vitro culture, [3H]-hypoxanthine incorporation; type: cell-based; settings: 72 h, asynchronous culture, 48 h + 24 h with [3H]-hypoxanthine, read-out: IC50 (nM) of malaria culture (Plasmodium falciparum)
Procedure: The antimalarial activity of substances 1 to 8 (see page 5) was determined using in vitro cultures of the causative organism of malaria, Plasmodium falciparum. 200 μl of an asynchronous Plasmodium falciparum culture with a 0.4% blood parasite content and a heamatocrit of 2% were loaded into each of the wells of a 96 well microtitre plate. A serial dilution series of the compounds was then prepared in steps of three between concentrations of 100 and 0.14 μmol l^−1. The plates were incubated at 37° C., 3% CO2 and 5% O2 over a period of 48 hours. 30 μl of medium supplemented with 27 μCi ml^−1 of [^3H]-hypoxanthine were then added to each well. After 24 hours' incubation, the parasites were harvested by filtration through glass fibre filters and the incorporated radioactivity was measured. Inhibition of parasite growth was measured as the percentage inhibition of tritium incorporation. Inhibition of parasite growth was expressed as the percentage inhibition of tritium incorporation relative to a comparison without the substance. The median inhibitory concentration (IC50) of the substance was determined by extrapolating the values.

[24] = 2000 gram/hectare, read-out: Herbicidal activity, Amaranthus retroflexus
[25] = 2000 gram/hectare, read-out: Herbicidal activity, Setaria viridis
[26] = 2000 gram/hectare, read-out: Herbicidal activity, Galium aperine
[27] = 2000 gram/hectare, read-out: Herbicidal activity, Cyperus esculentus
[28] = 2000 gram/hectare, read-out: Herbicidal activity, Avena fatua
[29] = 2000 gram/hectare, read-out: Herbicidal activity, Beta vulgaris
[30] = 2000 gram/hectare, read-out: Herbicidal activity, Zea mays
[31] = 2000 gram/hectare, read-out: Herbicidal activity, Xanthium strumarium
[32] = 2000 gram/hectare, read-out: Herbicidal activity, Alopecurus myosuroides
[33] = 2000 gram/hectare, read-out: Herbicidal activity, Sinapis arvensis
[34] = 2000 gram/hectare, read-out: Herbicidal activity, Abutilon theophrasti

`CP(C)(=O)CNCN(O)C(=O)c1ccccc1` [Compound 2, N-(N-Benzoyl-N-hydroxyaminomethyl)aminomethyldimethylphosphine oxide] showed a pest or weed control at 500 g/ha (Amaranthus retroflexus [1]; 500 gram/hectare) of 0%, a pest or weed control at 500 g/ha (Setaria viridis [2]; 500 gram/hectare) of 90% and a pest or weed control at 500 g/ha (Galium aperine [3]; 500 gram/hectare) of 60%. The pest or weed control at 500 g/ha (Cyperus esculentus [4]; 500 gram/hectare) was 0%, the pest or weed control at 500 g/ha (Avena fatua [5]; 500 gram/hectare) was 70% and the plant injury at 500 g/ha (Beta vulgaris [6]; 500 gram/hectare) was 50%. The plant injury at 500 g/ha (Zea mays [7]; 500 gram/hectare) was 70%, the pest or weed control at 500 g/ha (Xanthium strumarium [8]; 500 gram/hectare) was 50% and the pest or weed control at 500 g/ha (Alopecurus myosuroides [9]; 500 gram/hectare) was 60%. The pest or weed control at 500 g/ha (Sinapis arvensis [10]; 500 gram/hectare) was 80%, the pest or weed control at 500 g/ha (Abutilon theophrasti [11]; 500 gram/hectare) was 50% and the IC50 [12] was 60 nM. For the same compound, the plant injury at 1000 g/ha (Rice; 1000 gram/hectare) was 30%, the pest or weed control at 1000 g/ha (Echinochloa; 1000 gram/hectare) was 0% and the pest or weed control at 1000 g/ha (Solanum; 1000 gram/hectare) was 0%. The pest or weed control at 1000 g/ha (Lepidium; 1000 gram/hectare) was 30%, the pest or weed control at 500 g/ha (Amaranthus retroflexus [13]; 500 gram/hectare) was 0% and the pest or weed control at 500 g/ha (Setaria viridis [14]; 500 gram/hectare) was 0%. For the same compound, the pest or weed control at 500 g/ha (Galium aperine [15]; 500 gram/hectare) was 0%, the pest or weed control at 500 g/ha (Cyperus esculentus [16]; 500 gram/hectare) was 0% and the pest or weed control at 500 g/ha (Avena fatua [17]; 500 gram/hectare) was 0%. For the same compound, the plant injury at 500 g/ha (Beta vulgaris [18]; 500 gram/hectare) was 50%, the plant injury at 500 g/ha (Zea mays [19]; 500 gram/hectare) was 0% and the pest or weed control at 500 g/ha (Xanthium strumarium [20]; 500 gram/hectare) was 0%. For the same compound, the pest or weed control at 500 g/ha (Alopecurus myosuroides [21]; 500 gram/hectare) was 0%, the pest or weed control at 500 g/ha (Sinapis arvensis [22]; 500 gram/hectare) was 60% and the pest or weed control at 500 g/ha (Abutilon theophrasti [23]; 500 gram/hectare) was 0%. The IC50 (Plasmodium falciparum) was 420 nM.
In the case of `CN(CC(=O)P(C)(C)=O)CN(O)C(=O)C(F)(F)F` [Compound 7, 2-(N-(N-Trifluoracetyl-N-hydroxyaminomethyl)-N-methyl)amino-1-oxoethyldimethylphosphine oxide], the pest or weed control at 2000 g/ha (Amaranthus retroflexus [1]; [24]) is reported as 50%, the pest or weed control at 2000 g/ha (Setaria viridis [2]; [25]) is reported as 90% and the pest or weed control at 2000 g/ha (Galium aperine [3]; [26]) is reported as 70%. The pest or weed control at 2000 g/ha (Cyperus esculentus [4]; [27]) was 0%, the pest or weed control at 2000 g/ha (Avena fatua [5]; [28]) was 80% and the plant injury at 2000 g/ha (Beta vulgaris [6]; [29]) was 50%. The plant injury at 2000 g/ha (Zea mays [7]; [30]) was 70%, the pest or weed control at 2000 g/ha (Xanthium strumarium [8]; [31]) was 90% and the pest or weed control at 2000 g/ha (Alopecurus myosuroides [9]; [32]) was 80%. For the same compound, the pest or weed control at 2000 g/ha (Sinapis arvensis [10]; [33]) was 70%, the pest or weed control at 2000 g/ha (Abutilon theophrasti [11]; [34]) was 50% and the IC50 [12] was 300 nM. It also gave a plant injury at 4000 g/ha (Rice; 4000 gram/hectare, read-out: Herbicidal activity, Rice) of 30%, a pest or weed control at 4000 g/ha (Echinochloa; 4000 gram/hectare, read-out: Herbicidal activity, Echinochloa) of 40% and a pest or weed control at 4000 g/ha (Solanum; 4000 gram/hectare, read-out: Herbicidal activity, Solanum) of 30%. It also gave a pest or weed control at 4000 g/ha (Lepidium; 4000 gram/hectare, read-out: Herbicidal activity, Lepidium) of 40%, a pest or weed control at 2000 g/ha (Amaranthus retroflexus [13]; [24]) of 20% and a pest or weed control at 2000 g/ha (Setaria viridis [14]; [25]) of 0%. The pest or weed control at 2000 g/ha (Galium aperine [15]; [26]) was 0%, the pest or weed control at 2000 g/ha (Cyperus esculentus [16]; [27]) was 0% and the pest or weed control at 2000 g/ha (Avena fatua [17]; [28]) was 30%. For the same compound, the plant injury at 2000 g/ha (Beta vulgaris [18]; [29]) was 70%, the plant injury at 2000 g/ha (Zea mays [19]; [30]) was 30% and the pest or weed control at 2000 g/ha (Xanthium strumarium [20]; [31]) was 0%. For the same compound, the pest or weed control at 2000 g/ha (Alopecurus myosuroides [21]; [32]) was 30%, the pest or weed control at 2000 g/ha (Sinapis arvensis [22]; [33]) was 30% and the pest or weed control at 2000 g/ha (Abutilon theophrasti [23]; [34]) was 0%. It also gave an IC50 (Plasmodium falciparum) of 1100 nM.
